The target of data set [1] is T1, Polyunsaturated fatty acid 5-lipoxygenase (Homo sapiens) (UniProt P09917).
T1 sequence (whole entry): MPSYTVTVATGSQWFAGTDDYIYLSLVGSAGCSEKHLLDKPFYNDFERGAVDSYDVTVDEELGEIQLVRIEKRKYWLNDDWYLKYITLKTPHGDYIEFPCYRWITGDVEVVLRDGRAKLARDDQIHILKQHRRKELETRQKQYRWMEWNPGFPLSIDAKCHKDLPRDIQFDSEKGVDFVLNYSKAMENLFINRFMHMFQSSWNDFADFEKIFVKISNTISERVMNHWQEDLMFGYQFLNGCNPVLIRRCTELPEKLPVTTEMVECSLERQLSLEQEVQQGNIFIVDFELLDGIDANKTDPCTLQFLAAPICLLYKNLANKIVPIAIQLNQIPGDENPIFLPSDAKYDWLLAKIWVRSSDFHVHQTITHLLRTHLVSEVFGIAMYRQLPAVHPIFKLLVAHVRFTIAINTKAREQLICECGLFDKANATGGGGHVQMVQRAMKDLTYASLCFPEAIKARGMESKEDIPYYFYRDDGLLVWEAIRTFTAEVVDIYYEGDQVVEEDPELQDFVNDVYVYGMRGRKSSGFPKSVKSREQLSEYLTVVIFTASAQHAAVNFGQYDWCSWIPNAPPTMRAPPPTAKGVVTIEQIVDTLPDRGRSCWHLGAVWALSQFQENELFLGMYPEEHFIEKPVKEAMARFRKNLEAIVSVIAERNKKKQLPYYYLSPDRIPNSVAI
Briefly: Inhibition of 5-LO in human polymorphonuclear leukocytes using arachidonic acid as substrate at 10 uM preincubated for 15 mins followed by substrate addition measured after 10 mins by HPLC analysis in presence of Ca2+-ionophore A23187. Type of data set: cell-based.

For data set [2], the system named is HepG2. Put plainly: Cytotoxicity against human HepG2 cells at 10 uM after 48 hrs by WST-1 assay relative to control. The class given is cell-based. The settings on record: hepg2, 48 h. (Tetrazolium assays rely on reduction of a dye to a coloured formazan, in cell work by metabolically active cells.)
For data set [3], the target named is T2, Prostaglandin G/H synthase 2 (Homo sapiens) (UniProt P35354).
T2 sequence (whole entry): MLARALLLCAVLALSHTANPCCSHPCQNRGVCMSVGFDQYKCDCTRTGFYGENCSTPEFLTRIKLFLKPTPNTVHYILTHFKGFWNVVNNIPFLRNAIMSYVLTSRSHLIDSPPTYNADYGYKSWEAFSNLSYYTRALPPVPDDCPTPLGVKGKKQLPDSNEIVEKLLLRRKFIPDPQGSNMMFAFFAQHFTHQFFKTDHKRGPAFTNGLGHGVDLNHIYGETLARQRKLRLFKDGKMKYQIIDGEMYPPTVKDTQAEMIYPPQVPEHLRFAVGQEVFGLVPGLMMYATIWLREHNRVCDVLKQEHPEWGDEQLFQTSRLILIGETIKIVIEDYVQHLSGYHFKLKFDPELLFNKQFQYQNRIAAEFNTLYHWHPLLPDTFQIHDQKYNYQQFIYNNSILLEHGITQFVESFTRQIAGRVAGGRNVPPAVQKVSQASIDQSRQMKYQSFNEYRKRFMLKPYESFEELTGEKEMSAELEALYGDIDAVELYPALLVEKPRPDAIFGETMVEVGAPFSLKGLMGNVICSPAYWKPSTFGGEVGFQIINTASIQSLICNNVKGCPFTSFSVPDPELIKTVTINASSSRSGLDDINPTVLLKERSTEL
Put plainly: Inhibition of recombinant human COX2 using arachidonic acid as substrate up to 10 uM preincubated for 5 mins followed by substrate addition measured after 5 mins.

Data set [4] can be described thus: Metabolic stability in Sprague-Dawley rat liver microsomes assessed as compound remaining at 10 uM after 30 mins by HPLC analysis. The class given is ADME. The settings on record: read-out: Stability. On the technique in general: Microsomes from liver hold many membrane-bound enzymes, among them those of drug oxidation.
Data set [5] concerns the target T3, Prostaglandin G/H synthase 1 (Ovis aries) (UniProt P05979).
T3 sequence (whole entry): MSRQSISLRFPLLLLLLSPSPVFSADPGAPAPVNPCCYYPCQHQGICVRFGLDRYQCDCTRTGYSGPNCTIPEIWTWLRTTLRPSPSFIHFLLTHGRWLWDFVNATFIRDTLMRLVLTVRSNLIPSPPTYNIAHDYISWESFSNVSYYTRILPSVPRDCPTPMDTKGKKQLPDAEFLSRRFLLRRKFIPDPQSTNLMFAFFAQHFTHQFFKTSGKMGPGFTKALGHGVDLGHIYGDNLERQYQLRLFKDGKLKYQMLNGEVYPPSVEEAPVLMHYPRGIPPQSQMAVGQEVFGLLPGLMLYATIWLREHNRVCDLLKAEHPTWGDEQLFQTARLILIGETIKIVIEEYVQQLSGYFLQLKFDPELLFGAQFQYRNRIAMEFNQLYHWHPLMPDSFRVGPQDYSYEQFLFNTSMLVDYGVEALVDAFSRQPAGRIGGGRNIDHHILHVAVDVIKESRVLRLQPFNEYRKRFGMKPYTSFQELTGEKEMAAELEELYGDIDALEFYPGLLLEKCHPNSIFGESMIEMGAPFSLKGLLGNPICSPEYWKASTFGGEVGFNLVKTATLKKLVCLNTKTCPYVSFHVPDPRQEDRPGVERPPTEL
Briefly: Inhibition of ovine COX1 using arachidonic acid as substrate up to 10 uM preincubated for 5 mins followed by substrate addition measured after 5 mins.

The subject of the next data set is HeLa. Briefly: Cytotoxicity against human HeLa cells at 60 uM after 48 hrs by WST-1 assay. The class given is cell-based.
Data set [6] relates to HepG2. Put plainly: Cytotoxicity against human HepG2 cells at 60 uM after 48 hrs by WST-1 assay relative to control. Type of data set: cell-based. The settings on record: hepg2, 48 h.
A further data set concerns the target T4, Bile acid receptor (Homo sapiens, UniProt Q96RI1).
T4 sequence (Q96RI1 whole entry): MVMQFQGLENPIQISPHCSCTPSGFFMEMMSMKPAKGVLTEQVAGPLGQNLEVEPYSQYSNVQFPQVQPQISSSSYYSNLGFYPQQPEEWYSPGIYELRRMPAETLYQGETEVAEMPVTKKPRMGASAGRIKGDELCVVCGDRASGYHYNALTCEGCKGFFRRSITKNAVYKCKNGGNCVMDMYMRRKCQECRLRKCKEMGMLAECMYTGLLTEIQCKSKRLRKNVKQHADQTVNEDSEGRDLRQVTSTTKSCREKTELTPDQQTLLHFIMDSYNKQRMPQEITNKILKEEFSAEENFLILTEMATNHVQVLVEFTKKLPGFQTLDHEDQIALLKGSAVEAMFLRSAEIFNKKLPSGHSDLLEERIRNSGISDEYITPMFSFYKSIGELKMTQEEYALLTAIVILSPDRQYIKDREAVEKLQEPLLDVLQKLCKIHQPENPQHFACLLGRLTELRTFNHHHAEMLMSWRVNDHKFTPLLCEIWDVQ
Briefly: Agonist activity at human FXR expressed in human HeLa cells assessed as transactivation after 24 hrs by luciferase reporter gene assay. The class given is cell-based. (In general: A reporter such as luciferase makes a cellular process visible.)

Data set [7] addresses T5, Prostaglandin E synthase (Homo sapiens) (UniProt O14684).
T5 sequence (whole entry): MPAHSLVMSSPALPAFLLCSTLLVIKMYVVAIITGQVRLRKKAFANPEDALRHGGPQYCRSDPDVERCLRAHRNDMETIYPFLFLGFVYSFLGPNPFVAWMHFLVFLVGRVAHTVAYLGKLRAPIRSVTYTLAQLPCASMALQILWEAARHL
Put plainly: Inhibition of mPGES1 mediated PGE2 production in IL-1beta stimulated human A549 cells at 10 uM by RP-HPLC analysis. The class given is cell-based.

Data set [8] can be described thus: Metabolic stability in Sprague-Dawley rat liver microsomes assessed as compound remaining at 10 uM after 15 mins by HPLC analysis. Type of data set: ADME. The settings on record: read-out: Stability.
Data set [9] has as its target T6, Bile acid receptor (Homo sapiens) (UniProt Q96RI1).
T6 sequence (whole entry): T4 sequence (Q96RI1 whole entry)
Put plainly: Agonist activity at human FXR expressed in human HeLa cells assessed as transactivation after 24 hrs by luciferase reporter gene assay relative to GW4064. Type of data set: cell-based.

The nature of data set [10]: Metabolic stability in Sprague-Dawley rat liver microsomes assessed as compound remaining at 10 uM after 60 mins by HPLC analysis. Type of data set: ADME. The settings on record: read-out: Stability.
In data set [11] the test system is HepG2. Put plainly: Cytotoxicity against human HepG2 cells at 100 uM after 48 hrs by WST-1 assay relative to control. Type of data set: cell-based. The settings on record: hepg2, 48 h.
The subject of data set [12] is HepG2. Briefly: Cytotoxicity against human HepG2 cells at 30 uM after 48 hrs by WST-1 assay relative to control. Type of data set: cell-based. The settings on record: hepg2, 48 h.
Data set [13] can be described thus: Aqueous solubility of the compound. The settings on record: water. The class given is physicochemical.

In brackets after ≈: the same amount, converted by molar mass. Activity calls are given as the source filed them. The rule behind the calls is not given here.

From ChEMBL document CHEMBL3259655, “Anthranilic acid derivatives as novel ligands for farnesoid X receptor (FXR)” (Bioorg Med Chem, 2014) come the findings set out here.

Usually EC50 stands for the concentration needed to bring the measured effect to its halfway point. A word on the solubility: it is how much of the substance goes into solution per volume. Low values mean a poorly soluble substance, high ones a readily soluble substance.

On to `O=C(O)CCCNC(=O)c1ccccc1NC(=O)c1ccc2ccccc2c1`, for which the inhibition entry in data set [1], in data set [3], in data set [5] and in [7] was “inactive” in each case. In addition, the Activity was 92% with HepG2 [2]; “Non-toxic” with HeLa; 81% in the data set on HepG2 [6]; 84% in the data set on HepG2 [11]; 90% with HepG2 [12]. Moreover, the remaining at 0.5 h, 10 µM in data set [4] stood at 93%. Moreover, the EC50 at Bile acid receptor stood at 8.55 µM. For the same compound, the remaining at 0.25 h, 10 µM in [8] worked out at 93%. The max activation in [9] stood at 37%. For the same compound, the remaining at 1 h, 10 µM in [10] was found to be 92%. In [13], this compound registered a solubility of 45 µg/mL (≈ 120 µM).
